Key:
[1] = Haemodynamic parameters in the narcotized dog (test B); type: in vivo; conditions: 0.03 mg/kg p.o.
From the text: B. Haemodynamic parameters in the narcotized dog:
The 4 most important measurement parameters (with respective measurement units) of the haemodynamic experiment are: (1) CBF: Coronary Blood Flow (in ml/min)--the velocity of blood flow through the coronary arteries; (2) HR: heart rate (in beats/min)--the heart frequency; (3) BP: blood pressure (in mm Hg)--the blood pressure; and (4) dp/dt: rate of increase in left ventricular pressure (in mm Hg/sec)--the rate of increase of the left ventricular pressure, as a measurement of the contractility force of the heart. The values are given as the %maximum variation from the initial value (Δ%) and the duration of this variation (t) per dosage administered.
There is thus obtained not only an overall picture of the activity of the substance, but also an estimation as to the potential selectivity for a specific part of the circulatory system in the entire organism. After the administration of an anaesthetic, the dog is intubated and respired artificially. Blood pH, pCO2, pO2 and haemoglobin are measured hourly with a blood-gas analyzer. The blood pressure (systolic and diastolic) is measured with a probe in the aorta abdominalis. The heart frequency is recorded by means of a tachometer, which is disengaged from the pressure pulse. For the other measurements the heart must firstly be opened in order that a probe can be inserted in the left ventricle (heart chamber) for the pressure measurements (dp/dt). The coronary blood flow is measured with a flowing probe in the left coronary artery (descendens).

[2] = test system: ^3 H-nifedipine (or ^3 H-nitrendipine) binding, rabbit or guinea pig heart membranes; assay: 3H-Nifedipine binding determination on homogenates or partially-cleaned membranes of rabbit or guinea pig heart (test A); conditions: maximum inhibition of specific binding; nifedipine established as 100%
Experimental: A. ^3 H-Nifedipine binding determination:
The determination is carried out on homogenates or on partially-cleaned membranes of rabbit or guinea pig heart. The reaction mixture (0.3 ml) consists of 0.2-0.8 mg of membrane protein, 1 nM of ^3 H-nifedipine (or 0.25 nM of ^3 H-nitrendipine) and various concentrations of the test substance. The incubation lasts 30 minutes at 25° C. or 37° C. and is stopped by dilution with the incubation buffer; a filtration is subsequently carried out. The filter-bound radioactivity is measured with a scintillation counter. Specific binding, that is, receptor-bound, is defined as the difference between total and unspecific-bound radioactivity. The unspecific binding is determined in the presence of an excess of non-radioactive nifedipine (1 μM).
The activity (potency) of a compound in this test is defined by the IC50 and %maximum inhibition values (%max. inhibition). The IC50 is the substance concentration (in mol/l) which produces a half-maximum inhibition of the specific ^3 H-nifedipine (or ^3 H-nitrendipine) binding. The maximum inhibition of the specific binding is given by the %maximum inhibition value; this value is established as 100% for the reference compound nifedipine. Both parameters are extrapolated from a concentration-binding curve.

For `CCCOCCOC(=O)C1=C(C)NC(C)=C(S(=O)(=O)N(C)C)C1c1cccc([N+](=O)[O-])c1` (stereo not drawn) [A, 5-(dimethylsulfamoyl)-1,4-dihydro-2,6-dimethyl-4-(3-nitrophenyl)nicotinic acid 2-propoxyethyl ester], the “Bp (blood pressure), % maximum variation from the initial value (Δ%)” value (“Bp (blood pressure), % maximum variation … (Δ%)” below) [1] was -55%, the “Bp, duration of variation (t)” value [1] was 60 ' and the “CBF (Coronary Blood Flow), % maximum variation from the initial value (Δ%)” value (“CBF (Coronary Blood Flow) … (Δ%)” for short) [1] was 50%. For the same compound, the “CBF, duration of variation (t)” value [1] was 60 ', the “HR (heart rate), % maximum variation from the initial value (Δ%)” value (“HR (heart rate), % maximum variation … (Δ%)” for short) [1] was -19% and the “HR, duration of variation (t)” value [1] was 40 '. The “dp/dt (rate of increase in left ventricular pressure), % maximum variation from the initial value (Δ%)” value [1] was -42%, the “dp/dt, duration of variation (t)” value [1] was 60 ' and the “% max. inhib.” value [2] was 100%.
With `CCCCN(C)S(=O)(=O)C1=C(C)NC(C)=C(C(=O)OC(C)C)C1c1cccc([N+](=O)[O-])c1` (stereo not drawn) [B, 5-(butylmethylsulfamoyl)-1,4-dihydro-2,6-dimethyl-4-(3-nitrophenyl)nicotinic acid isopropyl ester] the “Bp (blood pressure), % maximum variation … (Δ%)” value [1] was -30%, the “Bp, duration of variation (t)” value [1] was 24 ' and the “CBF (Coronary Blood Flow) … (Δ%)” value [1] was 78%. The “CBF, duration of variation (t)” value [1] was 40 ', the “HR (heart rate), % maximum variation … (Δ%)” value [1] was -11% and the “HR, duration of variation (t)” value [1] was > 30 '. For the same compound, the “dp/dt (rate of increase in left ventricular pressure), % maximum variation from the initial value (Δ%)” value [1] was -2%, the “dp/dt, duration of variation (t)” value [1] was 20 ' and the “% max. inhib.” value [2] was 100%.
For `COCCN(C)S(=O)(=O)C1=C(C)NC(C)=C(C(=O)OC(C)C)C1c1cccc([N+](=O)[O-])c1` (stereo not drawn) [C, 1,4-dihydro-2,6-dimethyl-5-[(2-methoxyethyl)methylsulfamoyl]-4-(3-nitrophenyl)nicotinic acid isopropyl ester], the “Bp (blood pressure), % maximum variation … (Δ%)” value [1] was -32%, the “Bp, duration of variation (t)” value [1] was > 60 ' and the “CBF (Coronary Blood Flow) … (Δ%)” value [1] was 108%. For the same compound, the “CBF, duration of variation (t)” value [1] was 20 ', the “HR (heart rate), % maximum variation … (Δ%)” value [1] was -11% and the “HR, duration of variation (t)” value [1] was > 60 '. The “dp/dt (rate of increase in left ventricular pressure), % maximum variation from the initial value (Δ%)” value [1] was -16%, the “dp/dt, duration of variation (t)” value [1] was > 60 ' and the “% max. inhib.” value [2] was 100%.

— patent US4847273A, “Dihydropyridine derivatives” (Hoffmann-La Roche Inc., priority 1985, dated 1989)
